Experimental data taken from US11197479B2, “Use of silthiofam for the treatment of soybean rust” (priority 2018, dated 2021).
Where “and” joins values, the source holds several entries; their conditions need not be identical. Identical values can stand only once.

Assays:
[1] = test system: Phakopsora pachyrhizi; assay: Glasshouse pot trial: efficacy on soybean rust on soybean (Glycine max), visual estimation of degree of infection on leaves; assay type: in vivo
Description: (§1) In the tables presented below, the following terms have the following meaning:
Glasshouse pot trials were conducted to evaluate the effect and efficacy of silthiofam on soybean rust disease on soybean (Glycine max).
The trial was divided in 11 treatments. In 4 of the treatments, silthiofam was applied in different amounts.
(§2) Silthiofam compositions used in this trial were prepared from the suspension concentrate containing 125 g/L of silthiofam, diluted with water to predetermined concentration and sprayed on the plants in the predetermined amounts.
In two of the treatments, silthiofam was applied in combination with additional ingredients.
First combination was of silthiofam and chitosan, wherein silthiofam was applied in an amount of 250 g/ha on the plant first and chitosan was applied subsequently in an amount of 200 g/ha.
Second combination was a combination of silthiofam and tagatose, wherein silthiofam was applied in an amount of 250 g/ha simultaneously with tagatose in an amount of 200 g/ha.
Further 6 treatments were current market available treatments of soybean rust applied in the label prescribed dose, wherein the compositions used were prepared from commercially available products prepared according to the respective label instructions and sprayed on the plants.
One treatment of the trial consisted of fungi inoculated plants which received no treatment.
Soybean plants were treated two times with silthiofam and other treatments. First treatment was applied when soybean plants reached stage BBCH16 and the second treatment was applied when soybean plants reached stage BBCH61. Growth stages were defined according to Compendium of Growth Stage Identification Keys for Mono- and Dicotyledonous Plants, Extended BBCH scale, 2nd Edition 1997, ISBN 3-9520749-3-4.
After silthiofam and other treatments were applied first time, plants were inoculated with Phakopsora pachyrhizi spores and evaluation of leaves condition and disease spread was done every 7 days.
(§3) Method used for evaluation of disease spread was visual estimation of degree of infection on leaves.
The experimental design of the pot trial was randomized design with 4 pot replications per treatment applied, wherein six soybean plants were planted per pot.
Treatments were the following:
Treatment 1: Plant inoculated with P. pachyrhizi, no treatment applied
Treatment 2: Treatment with flutriafol and azoxystrobin mixture, applied in concentration of 31.25 g flutriafol/ha and 37.5 g azoxystrobin/ha
Treatment 3: Silthiofam treatment applied in 250 g silthiofam/ha
Treatment 4: Silthiofam treatment applied in 500 g silthiofam/ha
Treatment 5: Silthiofam treatment applied in 250 g silthiofam/ha and 200 g/ha of tagatose
Treatment 6: Silthiofam treatment applied in 250 g silthiofam/ha and 200 g/ha of chitosan
Treatment 7: Mancozeb applied in 1.68 kg mancozeb/ha
Treatment 8: Chlorothalonil applied in 626.4 g chlorothalonil/ha
Treatment 9: Azoxystrobin applied in 37.5 g azoxystrobin/ha
Treatment 10: Boscalid applied in 294 g boscalid/ha
Treatment 11: Prothioconazole and tebuconazole mixture applied as 42 g prothioconazole/ha and 84 g tebuconazole/ha

[2] = test system: soybean rust disease; assay: Field trial: efficacy on naturally infected soybean, visual estimation of degree of infection on leaves; assay type: in vivo, Glycine max
Description: as §1
Field trial was conducted to evaluate the effect and efficacy of silthiofam on soybean rust disease on soybean (Glycine max) wherein plants were naturally infected by the disease.
The trial was divided in the following […]:
one treatment where plants were left untreated and in which natural progression of the disease can be observed;
two treatments with silthiofam alone in different dosage amounts;
and four treatments where silthiofam was applied with other compounds, namely tagatose and chitosan in different dosage ratios.
Each treatment was applied on a plot of 6 ft*30 ft in size and was repeated in 4 replicates.
as §2
For each treatment, two applications of respective treatment were made with 19 days interval between. First application was made when soybean plant reached stage BBCH 64, and the second one when plant reached stage BBCH 73. Growth stages were defined according to Compendium of Growth Stage Identification Keys for Mono- and Dicotyledonous Plants, Extended BBCH scale, 2nd Edition 1997, ISBN 3-9520749-3-4.
as §3

[3] = test system: Phakopsora pachyrhizi; assay: Glasshouse pot trial: efficacy on soybean rust on soybean (Glycine max), visual estimation of degree of infection on leaves; assay type: in vivo; details: general statement; Phakopsora pachyrhizi and P. meibomiae

## C=CCNC(=O)c1c([Si](C)(C)C)sc(C)c1C [Silthiofam, N-allyl-4,5-dimethyl-2-(trimethylsilyl)thiophene-3-carboxamide]
[1]; silthiofam 250 g/ha, 7/7 d after first/last application, 19 d after planting, LEALOW
  % efficacy: 71.5% and 90.9% and 93.6% and 88.9%
[1]; silthiofam 250 g/ha, 7/7 d after first/last application, 19 d after planting, LEAMID
  % efficacy: 93.4% and 100.0% and 81.9% and 85.0%
[1]; silthiofam 250 g/ha, 7/7 d after first/last application, 19 d after planting, LEAUPP
  % efficacy: 100.0%
[1]; silthiofam 250 g/ha, 14/14 d after first/last application, 26 d after planting, LEALOW
  % efficacy: 89.0% and 82.0% and 84.7% and 84.1%
[1]; silthiofam 250 g/ha, 14/14 d after first/last application, 26 d after planting, LEAMID
  % efficacy: 95.0% and 91.2% and 92.0% and 89.4%
[1]; silthiofam 250 g/ha, 14/14 d after first/last application, 26 d after planting, LEAUPP
  % efficacy: 100.0%
[1]; silthiofam 250 g/ha, 21/21 d after first/last application, 33 d after planting, LEALOW
  % efficacy: 78.0% and 76.0% and 82.0% and 80.0%
[1]; silthiofam 250 g/ha, 21/21 d after first/last application, 33 d after planting, LEAMID
  % efficacy: 92.0% and 89.0% and 90.0% and 88.0%
[1]; silthiofam 250 g/ha, 21/21 d after first/last application, 33 d after planting, LEAUPP
  % efficacy: 100.0%
[1]; silthiofam 250 g/ha, 28/7 d after first/last application, 40 d after planting, LEALOW
  % efficacy: 82.0% and 80.0% and 84.0%
[1]; silthiofam 250 g/ha, 28/7 d after first/last application, 40 d after planting, LEAMID
  % efficacy: 92.0% and 88.0% and 90.0%
[1]; silthiofam 250 g/ha, 28/7 d after first/last application, 40 d after planting, LEAUPP
  % efficacy: 100.0%
[1]; silthiofam 250 g/ha, 35/14 d after first/last application, 47 d after planting, LEAMID
  % efficacy: 78.0% and 82.0% and 80.0% and 84.0%
[1]; silthiofam 250 g/ha, 35/14 d after first/last application, 47 d after planting, LEAUPP
  % efficacy: 94.5% and 98.0% and 95.5% and 92.9%
[1]; silthiofam 250 g/ha, 42/21 d after first/last application, 54 d after planting, LEAMID
  % efficacy: 48.0% and 54.0% and 59.0% and 52.0%
[1]; silthiofam 250 g/ha, 42/21 d after first/last application, 54 d after planting, LEAUPP
  % efficacy: 86.0% and 85.0% and 89.0%
[1]; silthiofam 500 g/ha, 7/7 d after first/last application, 19 d after planting, LEALOW
  % efficacy: 85.8% and 95.5% and 93.6% and 97.3%
[1]; silthiofam 500 g/ha, 7/7 d after first/last application, 19 d after planting, LEAMID
  % efficacy: 93.4% and 94.5% and 100.0%
[1]; silthiofam 500 g/ha, 7/7 d after first/last application, 19 d after planting, LEAUPP
  % efficacy: 100.0%
[1]; silthiofam 500 g/ha, 14/14 d after first/last application, 26 d after planting, LEALOW
  % efficacy: 92.0% and 90.0% and 94.7% and 91.9%
[1]; silthiofam 500 g/ha, 14/14 d after first/last application, 26 d after planting, LEAMID
  % efficacy: 99.0% and 96.8% and 97.9%
[1]; silthiofam 500 g/ha, 14/14 d after first/last application, 26 d after planting, LEAUPP
  % efficacy: 100.0%
[1]; silthiofam 500 g/ha, 21/21 d after first/last application, 33 d after planting, LEALOW
  % efficacy: 89.0% and 86.0% and 92.0%
[1]; silthiofam 500 g/ha, 21/21 d after first/last application, 33 d after planting, LEAMID
  % efficacy: 96.0% and 95.0% and 97.0%
[1]; silthiofam 500 g/ha, 21/21 d after first/last application, 33 d after planting, LEAUPP
  % efficacy: 100.0%
[1]; silthiofam 500 g/ha, 28/7 d after first/last application, 40 d after planting, LEALOW
  % efficacy: 88.0% and 90.0% and 85.0%
[1]; silthiofam 500 g/ha, 28/7 d after first/last application, 40 d after planting, LEAMID
  % efficacy: 95.0% and 93.0% and 92.0%
[1]; silthiofam 500 g/ha, 28/7 d after first/last application, 40 d after planting, LEAUPP
  % efficacy: 100.0%
[1]; silthiofam 500 g/ha, 35/14 d after first/last application, 47 d after planting, LEAMID
  % efficacy: 92.0% and 89.0% and 90.0% and 86.0%
[1]; silthiofam 500 g/ha, 35/14 d after first/last application, 47 d after planting, LEAUPP
  % efficacy: 98.9% and 100.0% and 90.9%
[1]; silthiofam 500 g/ha, 42/21 d after first/last application, 54 d after planting, LEAMID
  % efficacy: 79.0% and 72.0% and 80.0% and 82.0%
[1]; silthiofam 500 g/ha, 42/21 d after first/last application, 54 d after planting, LEAUPP
  % efficacy: 92.0% and 90.0% and 95.0% and 93.0%
[2]; silthiofam 125 g/ha, 14/14 d after first/last application, LEALOW
  % efficacy: 88.9% and 84.3% and 63.4% and 77.3%
[2]; silthiofam 125 g/ha, 14/14 d after first/last application, LEAMID
  % efficacy: 95.5% and 92.9% and 95.0% and 90.9%
[2]; silthiofam 125 g/ha, 14/14 d after first/last application, LEAUPP
  % efficacy: 0.0%
[2]; silthiofam 125 g/ha, 20/1 d after first/last application, LEALOW
  % efficacy: 68.2% and 56.0% and 64.1% and 69.1%
[2]; silthiofam 125 g/ha, 20/1 d after first/last application, LEAMID
  % efficacy: 83.3% and 78.2% and 80.4%
[2]; silthiofam 125 g/ha, 20/1 d after first/last application, LEAUPP
  % efficacy: 90.9% and 88.9% and 100.0% and 94.4%
[2]; silthiofam 125 g/ha, 27/8 d after first/last application, LEALOW
  % efficacy: 35.00% and 42.00% and 36.00%
[2]; silthiofam 125 g/ha, 27/8 d after first/last application, LEAMID
  % efficacy: 77.9% and 75.0% and 78.6% and 80.3%
[2]; silthiofam 125 g/ha, 27/8 d after first/last application, LEAUPP
  % efficacy: 89.3% and 85.7% and 93.3% and 95.2%
[2]; silthiofam 125 g/ha, 34/15 d after first/last application, LEALOW
  % efficacy: 45.0% and 35.0% and 52.0% and 55.0%
[2]; silthiofam 125 g/ha, 34/15 d after first/last application, LEAMID
  % efficacy: 72.0% and 67.0% and 72.7%
[2]; silthiofam 125 g/ha, 34/15 d after first/last application, LEAUPP
  % efficacy: 90.9% and 86.2% and 92.2%
[2]; silthiofam 250 g/ha, 14/14 d after first/last application, LEALOW
  % efficacy: 66.7% and 56.9% and 73.2% and 59.1%
[2]; silthiofam 250 g/ha, 14/14 d after first/last application, LEAMID
  % efficacy: 81.8% and 78.6% and 70.0% and 63.6%
[2]; silthiofam 250 g/ha, 14/14 d after first/last application, LEAUPP
  % efficacy: 0.0%
[2]; silthiofam 250 g/ha, 20/1 d after first/last application, LEALOW
  % efficacy: 60.2% and 45.3% and 57.7% and 65.4%
[2]; silthiofam 250 g/ha, 20/1 d after first/last application, LEAMID
  % efficacy: 68.8% and 67.3% and 78.4%
[2]; silthiofam 250 g/ha, 20/1 d after first/last application, LEAUPP
  % efficacy: 81.8% and 83.3% and 90.0% and 100.0%
[2]; silthiofam 250 g/ha, 27/8 d after first/last application, LEALOW
  % efficacy: 55.00% and 65.00% and 58.00% and 48.00%
[2]; silthiofam 250 g/ha, 27/8 d after first/last application, LEAMID
  % efficacy: 61.8% and 61.1% and 68.6% and 62.1%
[2]; silthiofam 250 g/ha, 27/8 d after first/last application, LEAUPP
  % efficacy: 82.1% and 77.1% and 83.3% and 88.1%
[2]; silthiofam 250 g/ha, 34/15 d after first/last application, LEALOW
  % efficacy: 25.0% and 22.0% and 30.0% and 35.0%
[2]; silthiofam 250 g/ha, 34/15 d after first/last application, LEAMID
  % efficacy: 62.0% and 58.0% and 56.8%
[2]; silthiofam 250 g/ha, 34/15 d after first/last application, LEAUPP
  % efficacy: 67.3% and 62.1% and 54.5% and 57.8%
[3]
  activity against soybean rust causing fungi: high activity
